Experiment [1] addresses full-length human PRMT8 isoform 1 (Homo sapiens, UniProt Q9NR22). In words: PRMT8 Biochemical Assay (3H-SAM Flashplate, peptide substrate). A digest of the protocol: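 Scintillation Flashplate capture of biotinylated histone H4 (31-45) peptide (150 nM) methylated by 1.5 nM PRMT8 using 3H-SAM (50 nM) with unlabelled SAM (550 nM); enzyme and compound preincubated 30 min, room temperature, in Bicine pH 7.6 buffer with TCEP, BSG, Tween 20 and 2% DMSO. Stopped with excess cold SAM (400 uM); IC50 from % inhibition, min control 1 mM SAH.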

Experiment [2] deals with mono-methyl arginine in RKO cells. Nature of the experiment: RKO Methylation Assay, In Cell Western (ICW) for detection of mono-methyl arginine and DNA content. Format: cell-based. The settings on record: for EC30: Homo sapiens, RKO, 72 h. A digest of the protocol: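 RKO cells were treated with compound for 72 hours at 37 °C, methanol-fixed and stained overnight at 4 °C with anti-mono-methyl arginine (1:200), with DRAQ5 for DNA. Odyssey 800/700 nm intensity ratio was normalized to DMSO and 20 μM reference-compound controls. EC30 from triplicate nine-point curves.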

The mark [3] stands for this setting: read-out: Biochemical IC50 PRMT8.
The mark [4] stands for this setting: single experiment or average of multiple experiments, read-out: Biochemical IC50 PRMT8.
The mark [5] stands for this setting: read-out: In Cell Western EC30, RKO cells, 72 hours compound incubation, mono-methyl arginine signal normalised to DNA content (DRAQ5), percent activation vs 20 μM reference compound.
[6] abbreviates: read-out: In Cell Western EC30, RKO cells, 72 hours incubation, mono-methyl arginine signal normalised to DNA content, single experiment or average of multiple experiments.
[7] abbreviates: RKO cells, 72 hours compound incubation, mono-methyl arginine signal normalised to DNA content (DRAQ5), percent activation vs 20 μM reference compound, read-out: In Cell Western EC30.
Where [8] appears, read: RKO cells, 72 hours incubation, mono-methyl arginine signal normalised to DNA content, single experiment or average of multiple experiments, read-out: In Cell Western EC30.
[9] abbreviates: RKO cells, 72 hours compound incubation, mono-methyl arginine signal normalised to DNA content (DRAQ5), percent activation vs 20 μM reference compound.

Experimental findings from patent US11512053B2, “Arginine methyltransferase inhibitors and uses thereof” (priority 2013, dated 2022) are described below.

Structures can show the parent of a compound that is named as a salt. Where two headings read alike, the source gives them in different places. A value given as a limit tells only on which side of the number the result lay.

full-length human PRMT8 isoform 1, sequence (Q9NR22 whole entry, canonical isoform): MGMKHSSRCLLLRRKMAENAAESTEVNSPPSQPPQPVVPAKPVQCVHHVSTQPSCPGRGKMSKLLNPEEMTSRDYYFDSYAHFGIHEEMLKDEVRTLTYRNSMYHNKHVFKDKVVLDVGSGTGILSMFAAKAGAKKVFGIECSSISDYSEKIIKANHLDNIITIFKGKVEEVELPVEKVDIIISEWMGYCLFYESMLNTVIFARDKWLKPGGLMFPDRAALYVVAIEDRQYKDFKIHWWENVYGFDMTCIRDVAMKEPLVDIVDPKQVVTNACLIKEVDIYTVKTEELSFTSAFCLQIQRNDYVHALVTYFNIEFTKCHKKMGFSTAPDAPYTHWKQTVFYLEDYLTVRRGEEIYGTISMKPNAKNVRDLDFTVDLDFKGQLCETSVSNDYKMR

For orientation: IC50 means the concentration needed to halve the response being measured. A word on the EC30: it is the concentration needed for an effect of 30%. For the molecule `CNCCN(C)Cc1ccnn1C1CCC2(CCCC2)CC1` [Compound 275, Methyl[2-(methylamino)ethyl][(1-[spiro[4.5]decan-8-yl]-1H-pyrazol-5-yl)methyl]amine trifluoroacetate], the IC50 was less than 100 nM in experiment [1] (setting [3]) and 10.4 nM in experiment [1] (setting [4]). Besides, the concentration for an effect of 30% (EC30) in experiment [2] (setting [5]) is less than 3000 nM; in experiment [2] (setting [6]), 84 nM.
For the molecule `CNCCN(C)Cc1c[nH]nc1C1CCC2(CCCCC2)OC1` (stereo not drawn) [Compound 62], the results for the IC50 in experiment [1] (setting [3]) and in experiment [1] (setting [4]) were less than 100 nM and 20 nM, respectively. In addition, the results for the EC30 in experiment [2] (setting [7]) and in experiment [2] (setting [8]) were less than 3000 nM and 169 nM, respectively.
In the case of `CN(CCN)Cc1c[nH]nc1C1CCCC1` [Compound 31], the IC50 in experiment [1] (setting [4]) amounted to 1150 nM. Besides, the EC30 in experiment [2] (setting [8]) is greater than 20000 nM. Moreover, in experiment [2] (setting [9]), the “In Cell Western EC30” value is reported as “C (“C” indicates an EC30 > 12.01 μM)”.
In the case of `CNCCN(C)Cc1c[nH]nc1C1CCC(C(C)C)CC1` (stereo not drawn) [Compound 50], in experiment [1] (setting [4]), the IC50 was determined as 11.2 nM. Besides, the figures for the 30% effect concentration (EC30) in experiment [2] (setting [7]) and in experiment [2] (setting [8]) were less than 3000 nM and 27 nM, respectively.
In the case of `CNCCN(C)Cc1c[nH]nc1C1CCNCC1` [Compound 42], the IC50 in experiment [1] (setting [4]) was 30 nM. For the same molecule, in experiment [2] (setting [8]), the EC30 is greater than 20000 nM. In experiment [2] (setting [9]), the “In Cell Western EC30” value is on record as “C (“C” indicates an EC30 > 12.01 μM)”.
As to `CNCCN(C)Cc1c[nH]nc1C1CCC(COC)(COC)CC1` [Compound 57], the half-maximal inhibitory concentration (IC50) in experiment [1] (setting [4]) turned out to be 30.1 nM. Besides, the EC30 is less than 3000 nM in experiment [2] (setting [7]) and 25 nM in experiment [2] (setting [8]).
As for `CN(CCN)Cc1c[nH]nc1C(C)(C)C` [Compound 27], the IC50 in experiment [1] (setting [3]) and in experiment [1] (setting [4]) was greater than 10000 nM throughout. Also, the EC30 in experiment [2] (setting [8]) was greater than 20000 nM. Also, the “In Cell Western EC30” value in experiment [2] (setting [9]) is “C (“C” indicates an EC30 > 12.01 μM)”.
In the case of `CNCCN(C)Cc1c[nH]nc1[C@H]1CC[C@]2(CC1)CC(C)(C)CO2` [Compound 134, methyl[2-(methylamino)ethyl]([3-[(5r,8r)-3,3-dimethyl-1-oxaspiro[4.5]decan-8-yl]-1H-pyrazol-4-yl]methyl)amine], the IC50 in experiment [1] (Biochemical IC50 PRMT8) is less than 100 nM; in experiment [1] (Biochemical IC50 PRMT8, single experiment or average of multiple experiments), 24.8 nM. The EC30 is less than 3000 nM in experiment [2] (setting [5]) and 33.2 nM in experiment [2] (setting [6]).
On to `CNCCN(C)Cc1c[nH]nc1C1CCC2(CCOC2)CC1` (stereo not drawn) [Compound 54], for which the IC50 in experiment [1] (setting [4]) was determined as 24.7 nM. Further, the EC30 is less than 3000 nM in experiment [2] (setting [7]) and 87 nM in experiment [2] (setting [8]).
On to `CN(CCN)Cc1c[nH]nc1C1=CCCC1` [Compound 25], for which the IC50 in experiment [1] (setting [4]) came out at 2860 nM. In experiment [2] (setting [8]), the EC30 worked out at 11800 nM. In addition, the “In Cell Western EC30” value in experiment [2] (setting [9]) is listed as “B (“B” indicates an EC30 of 3.01-12.00 μM)”.
In the case of `CNCCN(C)Cc1c[nH]nc1C1CCC2(CCC(C)(C)CC2)OC1` (stereo not drawn) [Compound 65], the IC50 is less than 100 nM in experiment [1] (setting [3]) and 13.6 nM in experiment [1] (setting [4]). Besides, the EC30 was less than 3000 nM in experiment [2] (setting [7]) and 77.5 nM in experiment [2] (setting [8]).
On to `CNCCN(C)Cc1c[nH]nc1C1CCC(C)(C)CC1` [Compound 52], for which the IC50 in experiment [1] (setting [4]) turned out to be 10.4 nM. The EC30 in experiment [2] (setting [8]) was 41 nM.
`CNCCN(C)Cc1c[nH]nc1C1CCC(Oc2ccccc2)CC1` (stereo not drawn) [Compound 67]: the IC50 was less than 100 nM in experiment [1] (setting [3]) and 11.9 nM in experiment [1] (setting [4]). Moreover, the EC30 is less than 3000 nM in experiment [2] (setting [7]) and 81 nM in experiment [2] (setting [8]).
Taken in the same sequence, the figures for `CNCCN(C)Cc1c[nH]nc1C1CC(COC)C(C)(C)C(COC)C1` (stereo not drawn) [Compound 86] were 3010 to 10000 nM, 3970 nM, less than 3000 nM and 16.8 nM.
Turning to `CN(CCN)Cc1c[nH]nc1C1CCC1` [Compound 26], the IC50 in experiment [1] (setting [4]) was found to be 5630 nM. The EC30 in experiment [2] (setting [8]) was greater than 20000 nM. Also, in experiment [2] (setting [9]), the “In Cell Western EC30” value is reported as “C (“C” indicates an EC30 > 12.01 μM)”.
For `CN(CCN)Cc1c[nH]nc1C1=CCOCC1` [Compound 10] the same measures were 1920 nM, greater than 20000 nM and “C (“C” indicates an EC30 > 12.01 μM)”.
Consider `CNCCN(C)Cc1c[nH]nc1C1CCC(C)(C)C(C(=O)NCc2ccccc2)C1` (stereo not drawn) [Compound 92], for which the IC50 is less than 100 nM in experiment [1] (setting [3]) and 42.1 nM in experiment [1] (setting [4]). Moreover, the EC30 was less than 3000 nM in experiment [2] (setting [7]) and 2170 nM in experiment [2] (setting [8]).
For `CNCCN(C)Cc1c[nH]nc1C1CCC(C)(C)C(C(=O)NCC(C)C)C1` (stereo not drawn) [Compound 90] the same measures were 101 to 1000 nM, 117 nM, less than 3000 nM and 316 nM.
`CNCCN(C)Cc1c[nH]nc1C1CCC(COCCOC)(COCCOC)CC1` [Compound 60]: in experiment [1] (setting [4]), the IC50 was determined as 129 nM. In addition, the EC30 in experiment [2] (setting [7]) is less than 3000 nM; in experiment [2] (setting [8]) it was 2840 nM.
With `CN(CCN)Cc1c[nH]nc1C1CCCCC1` [Compound 22], in experiment [1] (setting [4]), the IC50 is 300 nM. In addition, the EC30 in experiment [2] (setting [8]) worked out at 1240 nM. In addition, the “In Cell Western EC30” value in experiment [2] (setting [9]) is on record as “A (“A” indicates an EC30 ≤ 3.00 μM)”.
Taken in the same sequence, the figures for `CC1CCC(c2c[nH]nc2CN(C)CCN)CC1` (stereo not drawn) [Compound 35] were 140 nM, 730 nM and “A (“A” indicates an EC30 ≤ 3.00 μM)”.
For `CN(CCN)Cc1n[nH]cc1C1CCC(N2CCOCC2)CC1` (stereo not drawn) [Compound 44, N^1-methyl-N^1-((4-(4-morpholinocyclohexyl)-1H-pyrazol-3-yl)methyl)ethane-1,2-diamine] the same measures were 62.4 nM, 4570 nM and “B (“B” indicates an EC30 of 3.01-12.00 μM)”.
As to `CNCCN(C)Cc1c[nH]nc1C1CCC2(CCCCC2)CC1` [Compound 46], the IC50 in experiment [1] (setting [4]) is 6.2 nM. The results for the EC30 in experiment [2] (setting [7]) and in experiment [2] (setting [8]) were less than 3000 nM and 8 nM, respectively.
For the molecule `CNCCN(C)Cc1c[nH]nc1C1CCC2(CCCC2)CC1` [Compound 48], in experiment [1] (setting [4]), the IC50 stood at 8.3 nM. The values for the EC30 in experiment [2] (setting [7]) and in experiment [2] (setting [8]) were less than 3000 nM and 14 nM, respectively.
Consider `CNCCN(C)Cc1cn(C)nc1C1CCC2(CCCC2)CC1` [Compound 47], for which the IC50 in experiment [1] (setting [4]) is 12.5 nM. Besides, the concentration for an effect of 30% (EC30) in experiment [2] (setting [8]) worked out at 52 nM.
Regarding `CNCCN(C)Cc1c[nH]nc1C1CCN(C)CC1` [Compound 41], the IC50 in experiment [1] (setting [4]) worked out at 350 nM. Besides, the 30% effect concentration (EC30) in experiment [2] (setting [8]) was greater than 20000 nM. The “In Cell Western EC30” value in experiment [2] (setting [9]) is listed as “C (“C” indicates an EC30 > 12.01 μM)”.
Turning to `CC(C)Cc1n[nH]cc1CN(C)CCN` [Compound 28, N^1-((3-iso-butyl-1H-pyrazol-4-yl)methyl)-N^1-methylethane-1,2-diamine], in experiment [1] (setting [4]), the IC50 was determined as 1680 nM. For the same molecule, the EC30 in experiment [2] (setting [7]) is 3010 to 12000 nM; in experiment [2] (setting [8]), 11100 nM.
`Cc1n[nH]cc1CN(C)CCN` [Compound 30]: the IC50 in experiment [1] (setting [4]) is greater than 10000 nM. In addition, the EC30 in experiment [2] (setting [8]) is greater than 20000 nM. Besides, in experiment [2] (setting [9]), the “In Cell Western EC30” value is “C (“C” indicates an EC30 > 12.01 μM)”.
`CN(CCN)Cc1n[nH]cc1C1CCCCC1` [Compound 33]: the IC50 in experiment [1] (setting [4]) stood at 500 nM. Further, the EC30 in experiment [2] (setting [8]) worked out at 3330 nM. Further, the “In Cell Western EC30” value in experiment [2] (setting [9]) is “B (“B” indicates an EC30 of 3.01-12.00 μM)”.
As for `CNCCN(C)Cc1c[nH]nc1C1CCC(COC)CC1` (stereo not drawn) [Compound 53], the IC50 in experiment [1] (setting [4]) worked out at 12.8 nM. For the same molecule, the EC30 was less than 3000 nM in experiment [2] (setting [7]) and 17 nM in experiment [2] (setting [8]).
For the molecule `CNCCN(C)Cc1c[nH]nc1C1CCC(OCCOC)CC1` (stereo not drawn) [Compound 58], the IC50 in experiment [1] (setting [4]) was 72.1 nM. In addition, the EC30 in experiment [2] (setting [8]) was 978 nM.
Consider `CN(CCN)Cc1c[nH]nc1C1CCC(C)(C)CC1` [Compound 38, N^1-((3-(4,4-dimethylcyclohexyl)-1H-pyrazol-4-yl)methyl)-N^1-methylethane-1,2-diamine], for which the IC50 in experiment [1] (setting [4]) stood at 260 nM. Besides, in experiment [2] (setting [8]), the EC30 stood at 130 nM. In addition, the “In Cell Western EC30” value in experiment [2] (setting [9]) is “A (“A” indicates an EC30 ≤ 3.00 μM)”.
